Paper PMC6631792, “In Vitro and In Vivo Anti-Breast Cancer Activities of Some Newly Synthesized 5-(thiophen-2-yl)thieno-[2,3-d]pyrimidin-4-one Candidates” (Molecules, 2019)

Tests used:
[1] = test system: MCF-7 cells; assay: MTT cytotoxic assay on MCF-7 cells; assay type: cell-based, Human; details: Homo sapiens, MCF7
Text: “Human breast cancer cells (MCF-7) and normal non-tumorigenic MCF-10A cells were used throughout the work. Cells were obtained from ATCC, Gaithersburg, MD, USA. Standard MTT assay was used to explore the possible cytotoxic effects of the synthesized compounds [41, 42]. Medium composition, cultivation conditions and assay performance were exactly the same as our previous work. […] After MTT addition, the absorbance of the dissolved formazan crystals was read at 570 nm. The IC50 values were obtained with linear regression equations using Origin® 6.1 software (Origin Lab Corporation, Northampton, MA, USA)”.

[2] = Average animal weight in MCF-7 mouse xenograft model; assay type: in vivo; details: nude mice with MCF-7 xenograft, i.p.; for Average Weight of Animals in Grams after Days 0: day 0; for Average Weight of Animals in Grams after Days 2: day 2; for Average Weight of Animals in Grams after Days 4: day 4; for Average Weight of Animals in Grams after Days 6: day 6; for Average Weight of Animals in Grams after Days 8: day 8; for Average Weight of Animals in Grams after Days 10: day 10; for Average Weight of Animals in Grams after Days 12: day 12; for Average Weight of Animals in Grams after Days 14: day 14; for Average Weight of Animals in Grams after Days 16: day 16; for Average Weight of Animals in Grams after Days 18: day 18; for Average Weight of Animals in Grams after Days 20: day 20; for Average Weight of Animals in Grams after Days 22: day 22
Text: “In this work, MCF-7 mouse xenograft model was used. The animal protocol was approved by the Institutional Animal Use Ethics and Care Committee of the University of Alabama at Birmingham (50-01-05-08B). Female athymic pathogen-free nude mice (nu/nu, 4–6 weeks) were purchased from Frederick Cancer Research and Development Center (Frederick, MD, USA). To establish MCF-7 human breast cancer xenografts, each of the female nude mice was first implanted with a 60-day (subcutaneously, s.c.) slow release estrogen pellet (SE-121, 1.7 mg […]/pellet; Innovative Research of America, Sarasota, FL, USA). After 24 h, grown cells were harvested, washed twice with serum-free medium, resuspended, and injected subcutaneously (5 million cells/0.2 mL) into the left inguinal area of the mice. During the experiment, animals were checked periodically and the percentages of tumor growth, as well as animal weights, were recorded. Every 48 h, the size of the tumor was recorded by measuring two perpendicular diameters of the tumor and tumor volume was calculated according to Wang et al. [46]”.
“Treated animals and control groups (7–10 mice/group) received different compounds and vehicles, respectively. The tested compounds were dissolved in PEG400:ethanol:saline (57.1:14.3:28.6, v/v/v), and injected intraperitoneal (i.p.) at doses of […], 3 d/wk for 3 weeks. The higher dose (10 µM/kg/d, 3 d/wk) inhibited MCF-7 xenograft tumor growth”.

Row | SMILES | melting point | IC50 [1] | Average Weight of Animals in Grams after Days 0 [2] | Average Weight of Animals in Grams after Days 2 [2] | Average Weight of Animals in Grams after Days 4 [2] | Average Weight of Animals in Grams after Days 6 [2] | Average Weight of Animals in Grams after Days 8 [2] | Average Weight of Animals in Grams after Days 10 [2] | Average Weight of Animals in Grams after Days 12 [2] | Average Weight of Animals in Grams after Days 14 [2] | Average Weight of Animals in Grams after Days 16 [2] | Average Weight of Animals in Grams after Days 18 [2] | Average Weight of Animals in Grams after Days 20 [2] | Average Weight of Animals in Grams after Days 22 [2]
1 | NNC(=O)Cn1cnc2scc(-c3cccs3)c2c1=O [Compound 4, 2-(4-oxo-5-(thiophen-2-yl)thieno[2,3-d]pyrimidin-3(4H)-yl)acetohydrazide] | 205 to 207 °C | 4.87 ± 0.098 µM | 24.2 Grams | 24.2 Grams | 24.1 Grams | 24.0 Grams | 23.9 Grams | 23.9 Grams | 23.7 Grams | 23.7 Grams | 23.6 Grams | 23.6 Grams | 23.6 Grams | –
2 | O=C(Cn1cnc2scc(-c3cccs3)c2c1=O)NN=Cc1ccc(Cl)cc1 [Compound 7, N′-(4-Chlorobenzylidene)-2-(4-oxo-5-(thiophen-2-yl)thieno[2,3-d]pyrimidin-3(4H)-yl)acetohydrazide] | 250 to 252 °C | 4.33 ± 0.076 µM | 27.3 Grams | 27.3 Grams | 27.2 Grams | 27.2 Grams | 27.2 Grams | 27.1 Grams | 27.1 Grams | 27.1 Grams | 27.0 Grams | 27.0 Grams | 27.0 Grams | 27.0 Grams
3 | O=C(Cn1cnc2scc(-c3cccs3)c2c1=O)NN1C(=O)CSC1c1ccc(Cl)cc1 (stereo not shown) [Compound 9, N-(2-(4-Chlorophenyl)-4-oxothiazolidin-3-yl)-2-(4-oxo-5-(thiophen-2-yl)thieno[2,3-d]-pyrimidin-3(4H)-yl)-acetamide] | 175 to 177 °C | 2.37 ± 0.053 µM | 24.1 Grams | 24.1 Grams | 24.0 Grams | 24.0 Grams | 24.0 Grams | 24.0 Grams | 23.7 Grams | 23.7 Grams | 23.6 Grams | 23.6 Grams | 23.6 Grams | 23.6 Grams
4 | CC(=O)NNC(=O)Cn1cnc2scc(-c3cccs3)c2c1=O [Compound 13, N′-acetyl-2-(4-oxo-5-(thiophen-2-yl)thieno[2,3-d]pyrimidin-3(4H)-yl)aceto-hydrazide] | – | 3.64 ± 0.074 µM | 25.4 Grams | 25.4 Grams | 25.4 Grams | 25.4 Grams | 25.4 Grams | 25.3 Grams | 25.3 Grams | 25.3 Grams | 25.3 Grams | 25.3 Grams | 25.3 Grams | 25.3 Grams
5 | Cc1cc(=O)n(C(=O)Cn2cnc3scc(-c4cccs4)c3c2=O)[nH]1 [Compound 12, 3-(2-(3-methyl-5-oxo-2,5-dihydro-1H-pyrazol-1-yl)-2-oxoethyl)-5-(thiophen-2-yl)thieno-[2,3-d]pyrimidin-4(3H)-one] | – | 3.36 ± 0.063 µM | 27.4 Grams | 27.4 Grams | 27.4 Grams | 27.3 Grams | 27.3 Grams | 27.3 Grams | 27.2 Grams | 27.2 Grams | 27.2 Grams | 27.1 Grams | 27.1 Grams | 27.1 Grams
6 | COc1cccc(C=NNC(=O)Cn2cnc3scc(-c4cccs4)c3c2=O)c1OC [Compound 6, N′-(2,3-Dimethoxybenzylidene)-2-(4-oxo-5-(thiophen-2-yl)thieno[2,3-d]pyrimidin-3(4H)-yl)-acetohydrazide] | 248 to 250 °C | 4.52 ± 0.085 µM | 23.7 Grams | 23.7 Grams | 23.6 Grams | 23.6 Grams | 23.5 Grams | 23.5 Grams | 23.5 Grams | 23.4 Grams | 23.4 Grams | 23.5 Grams | 23.5 Grams | 23.5 Grams
7 | Nc1cc(O)cc(=O)n1NC(=O)Cn1cnc2scc(-c3cccs3)c2c1=O [Compound 14, N-(6-Amino-4-hydroxy-2-oxopyridin-1(2H)-yl)-2-(4-oxo-5-(thiophen-2-yl)thieno[2,3-d]-pyrimidin-3(4H)-yl)acetamide] | – | 1.19 ± 0.042 µM | 26.5 Grams | 26.4 Grams | 26.3 Grams | 26.2 Grams | 26.1 Grams | 25.9 Grams | 25.9 Grams | 25.9 Grams | 25.8 Grams | 25.8 Grams | 25.7 Grams | 25.7 Grams
